Results from ChEMBL document CHEMBL1201862, “PubChem BioAssay data set” (2004).
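48-hour exposure; five concentrations; linearly interpolated endpoints. Abbreviation: GI50, concentration required for 50% inhibition of growth.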 Active and inactive are the calls of the source. Cut-off read from the data, not from the text of the source: active = GI50 up to about 1.1 µM and inactive = higher.

Tests used:
Test in all cases: NCI tumour cell line growth inhibition, 48 h
CCRF-CEM = test system: CCRF-CEM
NCI-H226 = test system: NCI-H226
SNB-75 = test system: SNB-75
HOP-62 = test system: HOP-62
EKVX = test system: EKVX
SF-268 = test system: SF-268
SK-MEL-2 = test system: SK-MEL-2
PC-3 = test system: PC-3
SK-OV-3 = test system: SK-OV-3
OVCAR-4 = test system: OVCAR-4
786-0 = test system: 786-0
SR = test system: SR
M14 = test system: M14
NCI/ADR-RES = test system: NCI/ADR-RES
OVCAR-5 = test system: OVCAR-5
HL-60 = test system: HL-60
HT-29 = test system: HT-29
NCI-H522 = test system: NCI-H522
CAKI-1 = test system: CAKI-1
OVCAR-3 = test system: OVCAR-3
MOLT-4 = test system: MOLT-4
MDA-MB-435 = test system: MDA-MB-435
BT-549 = test system: BT-549
ACHN = test system: ACHN
HOP-92 = test system: HOP-92
RPMI-8226 = test system: RPMI-8226
SN12C = test system: SN12C
SF-539 = test system: SF-539
SF-295 = test system: SF-295
DU-145 = test system: DU-145
MCF7 = test system: MCF7
UO-31 = test system: UO-31
MDA-N = test system: MDA-N
Hs-578T = test system: Hs-578T
Malme-3M = test system: Malme-3M
HCT-116 = test system: HCT-116
T47D = test system: T47D
K562 = test system: K562
LOX IMVI = test system: LOX IMVI
SK-MEL-28 = test system: SK-MEL-28
U-251 = test system: U-251
HCC 2998 = test system: HCC 2998
NCI-H23 = test system: NCI-H23
SNB-19 = test system: SNB-19
TK-10 = test system: TK-10
COLO 205 = test system: COLO 205
UACC-257 = test system: UACC-257
SK-MEL-5 = test system: SK-MEL-5
A549 = test system: A549
UACC-62 = test system: UACC-62
OVCAR-8 = test system: OVCAR-8
MDA-MB-231 = test system: MDA-MB-231
IGROV-1 = test system: IGROV-1
RXF 393 = test system: RXF 393
KM12 = test system: KM12
SW-620 = test system: SW-620
A498 = test system: A498
HCT-15 = test system: HCT-15
NCI-H460 = test system: NCI-H460

CCC(C#N)(c1ccccc1)N(CCc1ccccc1)C(=O)c1ccccc1 (configuration not stated)
GI50 (CCRF-CEM): > 100 µM (inactive) | GI50 (NCI-H226): 18.5 µM (inactive) | GI50 (SNB-75): 29.5 µM (inactive) | GI50 (HOP-62): 15.9 µM (inactive) | GI50 (EKVX): > 100 µM (inactive) | GI50 (SF-268): 88.5 µM (inactive) | GI50 (SK-MEL-2): 67 µM (inactive) | GI50 (PC-3): > 100 µM (inactive) | GI50 (SK-OV-3): 32.8 µM (inactive) | GI50 (OVCAR-4): 10.8 µM (inactive) | GI50 (786-0): 13.3 µM (inactive) | GI50 (SR): > 100 µM (inactive) | GI50 (M14): > 100 µM (inactive) | GI50 (NCI/ADR-RES): 54.3 µM (inactive) | GI50 (OVCAR-5): > 100 µM (inactive) | GI50 (HL-60): > 100 µM (inactive) | GI50 (HT-29): > 100 µM (inactive) | GI50 (NCI-H522): > 100 µM (inactive) | GI50 (CAKI-1): > 100 µM (inactive) | GI50 (OVCAR-3): 85.9 µM (inactive) | GI50 (MOLT-4): > 100 µM (inactive) | GI50 (MDA-MB-435): > 100 µM (inactive) | GI50 (BT-549): 70.8 µM (inactive) | GI50 (ACHN): 51.2 µM (inactive) | GI50 (HOP-92): 12.6 µM (inactive) | GI50 (RPMI-8226): > 100 µM (inactive) | GI50 (SN12C): 85.5 µM (inactive) | GI50 (SF-539): 15.6 µM (inactive) | GI50 (SF-295): 29.6 µM (inactive) | GI50 (DU-145): > 100 µM (inactive) | GI50 (MCF7): > 100 µM (inactive) | GI50 (UO-31): 64.3 µM (inactive) | GI50 (MDA-N): > 100 µM (inactive) | GI50 (Hs-578T): 18.2 µM (inactive) | GI50 (Malme-3M): > 100 µM (inactive) | GI50 (HCT-116): 24.8 µM (inactive) | GI50 (T47D): > 100 µM (inactive) | GI50 (K562): > 100 µM (inactive) | GI50 (LOX IMVI): > 100 µM (inactive) | GI50 (SK-MEL-28): 42.6 µM (inactive) | GI50 (U-251): 30.3 µM (inactive) | GI50 (HCC 2998): 54.7 µM (inactive) | GI50 (NCI-H23): 76.9 µM (inactive) | GI50 (SNB-19): 28 µM (inactive) | GI50 (TK-10): 62.1 µM (inactive) | GI50 (COLO 205): > 100 µM (inactive) | GI50 (UACC-257): > 100 µM (inactive) | GI50 (SK-MEL-5): > 100 µM (inactive) | GI50 (A549): 77.1 µM (inactive) | GI50 (UACC-62): 49.5 µM (inactive) | GI50 (OVCAR-8): 20 µM (inactive) | GI50 (MDA-MB-231): 13.5 µM (inactive) | GI50 (IGROV-1): 46.9 µM (inactive) | GI50 (RXF 393): 24.5 µM (inactive) | GI50 (KM12): > 100 µM (inactive) | GI50 (SW-620): > 100 µM (inactive) | GI50 (A498): 24.2 µM (inactive) | GI50 (HCT-15): > 100 µM

NC(=S)N/N=C\c1nccc2ccccc12
GI50 (CCRF-CEM): 0.27 µM (active) | GI50 (NCI-H226): 0.184 µM (active) | GI50 (HOP-62): 0.321 µM (active) | GI50 (EKVX): 0.302 µM (active) | GI50 (SF-268): 0.216 µM (active) | GI50 (SK-MEL-2): 6 µM (inactive) | GI50 (PC-3): 0.685 µM (active) | GI50 (SK-OV-3): 0.2 µM (active) | GI50 (OVCAR-4): 0.309 µM (active) | GI50 (786-0): 0.29 µM (active) | GI50 (SR): 0.126 µM (active) | GI50 (M14): 0.383 µM (active) | GI50 (NCI/ADR-RES): 0.285 µM (active) | GI50 (OVCAR-5): 0.264 µM (active) | GI50 (HL-60): 0.327 µM (active) | GI50 (HT-29): 0.485 µM (active) | GI50 (NCI-H522): 0.908 µM (active) | GI50 (CAKI-1): 0.33 µM (active) | GI50 (OVCAR-3): 0.281 µM (active) | GI50 (MOLT-4): 0.226 µM (active) | GI50 (MDA-MB-435): 0.388 µM (active) | GI50 (BT-549): 0.424 µM (active) | GI50 (ACHN): 0.0501 µM (active) | GI50 (HOP-92): 0.264 µM (active) | GI50 (RPMI-8226): 0.267 µM (active) | GI50 (SN12C): 0.262 µM (active) | GI50 (SF-539): 0.155 µM (active) | GI50 (SF-295): 0.187 µM (active) | GI50 (DU-145): 0.404 µM (active) | GI50 (MCF7): 0.253 µM (active) | GI50 (UO-31): 0.36 µM (active) | GI50 (MDA-N): 0.429 µM (active) | GI50 (Hs-578T): 10.7 µM (inactive) | GI50 (Malme-3M): 1.73 µM (inactive) | GI50 (HCT-116): 0.44 µM (active) | GI50 (T47D): 2.69 µM (inactive) | GI50 (K562): 0.731 µM (active) | GI50 (LOX IMVI): 0.324 µM (active) | GI50 (SK-MEL-28): 0.36 µM (active) | GI50 (U-251): 0.281 µM (active) | GI50 (HCC 2998): 3.04 µM (inactive) | GI50 (NCI-H23): 0.314 µM (active) | GI50 (SNB-19): 0.531 µM (active) | GI50 (TK-10): 0.551 µM (active) | GI50 (COLO 205): 0.302 µM (active) | GI50 (UACC-257): 1.42 µM (inactive) | GI50 (SK-MEL-5): 0.143 µM (active) | GI50 (A549): 0.413 µM (active) | GI50 (UACC-62): 0.136 µM (active) | GI50 (OVCAR-8): 0.209 µM (active) | GI50 (MDA-MB-231): 0.46 µM (active) | GI50 (IGROV-1): 0.42 µM (active) | GI50 (NCI-H460): 0.267 µM (active) | GI50 (RXF 393): 0.357 µM (active) | GI50 (KM12): 0.885 µM (active) | GI50 (SW-620): 0.561 µM (active) | GI50 (A498): 0.21 µM (active) | GI50 (HCT-15): 0.369 µM

CC(=O)Nn1c(=S)[nH]c2ccccc21
GI50 (CCRF-CEM): > 100 µM (inactive) | GI50 (NCI-H226): > 100 µM (inactive) | GI50 (HOP-62): > 100 µM (inactive) | GI50 (EKVX): > 100 µM (inactive) | GI50 (SF-268): > 100 µM (inactive) | GI50 (SK-MEL-2): > 100 µM (inactive) | GI50 (PC-3): > 100 µM (inactive) | GI50 (SK-OV-3): > 100 µM (inactive) | GI50 (OVCAR-4): > 100 µM (inactive) | GI50 (786-0): > 100 µM (inactive) | GI50 (SR): > 100 µM (inactive) | GI50 (M14): > 100 µM (inactive) | GI50 (NCI/ADR-RES): > 100 µM (inactive) | GI50 (OVCAR-5): > 100 µM (inactive) | GI50 (HL-60): > 100 µM (inactive) | GI50 (HT-29): > 100 µM (inactive) | GI50 (NCI-H522): > 100 µM (inactive) | GI50 (CAKI-1): > 100 µM (inactive) | GI50 (MOLT-4): > 100 µM (inactive) | GI50 (MDA-MB-435): > 100 µM (inactive) | GI50 (BT-549): > 100 µM (inactive) | GI50 (ACHN): > 100 µM (inactive) | GI50 (HOP-92): > 100 µM (inactive) | GI50 (RPMI-8226): > 100 µM (inactive) | GI50 (SN12C): > 100 µM (inactive) | GI50 (SF-295): > 100 µM (inactive) | GI50 (DU-145): > 100 µM (inactive) | GI50 (MCF7): > 100 µM (inactive) | GI50 (UO-31): > 100 µM (inactive) | GI50 (MDA-N): > 100 µM (inactive) | GI50 (Hs-578T): > 100 µM (inactive) | GI50 (Malme-3M): > 100 µM (inactive) | GI50 (HCT-116): > 100 µM (inactive) | GI50 (T47D): > 100 µM (inactive) | GI50 (K562): > 100 µM (inactive) | GI50 (LOX IMVI): > 100 µM (inactive) | GI50 (SK-MEL-28): > 100 µM (inactive) | GI50 (U-251): > 100 µM (inactive) | GI50 (HCC 2998): > 100 µM (inactive) | GI50 (NCI-H23): > 100 µM (inactive) | GI50 (SNB-19): > 100 µM (inactive) | GI50 (TK-10): > 100 µM (inactive) | GI50 (COLO 205): > 100 µM (inactive) | GI50 (UACC-257): > 100 µM (inactive) | GI50 (SK-MEL-5): > 100 µM (inactive) | GI50 (A549): > 100 µM (inactive) | GI50 (UACC-62): > 100 µM (inactive) | GI50 (OVCAR-8): > 100 µM (inactive) | GI50 (MDA-MB-231): > 100 µM (inactive) | GI50 (IGROV-1): > 100 µM (inactive) | GI50 (NCI-H460): > 100 µM (inactive) | GI50 (RXF 393): > 100 µM (inactive) | GI50 (KM12): > 100 µM (inactive) | GI50 (SW-620): > 100 µM (inactive) | GI50 (A498): > 100 µM (inactive) | GI50 (HCT-15): > 100 µM
